{
  "source": "ChEMBL document CHEMBL3132769",
  "about": "“Fragment growing to retain or alter the selectivity of anchored kinase hinge-binding fragments” (Medchemcomm, 2014)",
  "key": {"[1]": {"target": "Tyrosine-protein kinase Fyn (Homo sapiens) (UniProt P06241)", "experiment": "Inhibition of human full length FYN expressed in baculovirus assessed as substrate phosphorylation using fluorescence-labelled peptides as substrate at 95 uM after 90 mins by microfluidic peptide phosphorylation assay"}, "[2]": {"target": "T1, Serine/threonine-protein kinase Nek2 (Homo sapiens) (UniProt P51955)", "T1 sequence (whole entry)": "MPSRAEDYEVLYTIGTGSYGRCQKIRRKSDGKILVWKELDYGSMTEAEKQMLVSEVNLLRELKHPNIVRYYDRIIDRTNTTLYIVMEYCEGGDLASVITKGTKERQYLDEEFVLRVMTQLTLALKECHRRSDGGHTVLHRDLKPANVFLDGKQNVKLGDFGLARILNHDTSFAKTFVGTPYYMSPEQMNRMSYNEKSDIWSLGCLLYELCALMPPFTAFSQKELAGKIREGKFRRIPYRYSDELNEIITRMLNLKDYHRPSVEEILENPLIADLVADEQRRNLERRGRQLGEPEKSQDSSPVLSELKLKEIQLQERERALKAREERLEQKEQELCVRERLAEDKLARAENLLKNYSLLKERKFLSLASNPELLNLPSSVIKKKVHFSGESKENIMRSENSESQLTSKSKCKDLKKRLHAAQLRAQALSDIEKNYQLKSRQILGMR", "experiment": "Inhibition of human full length NEK2 expressed in baculovirus assessed as substrate phosphorylation using fluorescence-labelled peptides as substrate at 95 uM after 90 mins by microfluidic peptide phosphorylation assay"}, "[3]": {"target": "Serine/threonine-protein kinase PAK 2 (Homo sapiens) (UniProt Q13177)", "experiment": "Inhibition of human truncated PAK2 expressed in Escherichia coli cell assessed as substrate phosphorylation using fluorescence-labelled peptides as substrate at 95 uM after 90 mins by microfluidic peptide phosphorylation assay"}, "[4]": {"target": "Ribosomal protein S6 kinase alpha-5 (Homo sapiens) (UniProt O75582)", "sequence (O75582 whole entry, looked up)": "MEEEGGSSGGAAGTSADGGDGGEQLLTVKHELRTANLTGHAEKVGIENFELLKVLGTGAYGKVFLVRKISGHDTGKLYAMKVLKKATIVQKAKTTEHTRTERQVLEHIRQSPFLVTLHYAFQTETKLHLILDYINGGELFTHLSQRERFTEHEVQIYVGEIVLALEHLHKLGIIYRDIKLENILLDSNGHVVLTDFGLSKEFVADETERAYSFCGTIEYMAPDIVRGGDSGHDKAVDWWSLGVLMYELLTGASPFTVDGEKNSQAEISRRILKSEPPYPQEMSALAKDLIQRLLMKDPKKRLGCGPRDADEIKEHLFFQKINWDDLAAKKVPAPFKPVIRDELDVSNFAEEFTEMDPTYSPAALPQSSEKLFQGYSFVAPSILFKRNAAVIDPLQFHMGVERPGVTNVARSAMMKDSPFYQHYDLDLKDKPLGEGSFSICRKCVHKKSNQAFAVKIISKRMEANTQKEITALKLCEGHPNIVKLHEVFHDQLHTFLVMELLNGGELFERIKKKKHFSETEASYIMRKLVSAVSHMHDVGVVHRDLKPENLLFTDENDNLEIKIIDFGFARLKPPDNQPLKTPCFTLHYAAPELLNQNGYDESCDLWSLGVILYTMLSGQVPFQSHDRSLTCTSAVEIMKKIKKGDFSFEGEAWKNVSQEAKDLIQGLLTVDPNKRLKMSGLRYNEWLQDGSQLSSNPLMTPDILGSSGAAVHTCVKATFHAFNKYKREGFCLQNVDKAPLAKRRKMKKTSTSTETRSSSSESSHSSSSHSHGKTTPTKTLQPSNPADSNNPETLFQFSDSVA", "experiment": "Inhibition of human full length MSK1 expressed in baculovirus assessed as substrate phosphorylation using fluorescence-labelled peptides as substrate at 0.2 uM after 90 mins by microfluidic peptide phosphorylation assay"}, "[5]": {"target": "Serine/threonine-protein kinase MARK2 (Homo sapiens) (UniProt Q7KZI7)", "sequence (Q7KZI7 whole entry)": "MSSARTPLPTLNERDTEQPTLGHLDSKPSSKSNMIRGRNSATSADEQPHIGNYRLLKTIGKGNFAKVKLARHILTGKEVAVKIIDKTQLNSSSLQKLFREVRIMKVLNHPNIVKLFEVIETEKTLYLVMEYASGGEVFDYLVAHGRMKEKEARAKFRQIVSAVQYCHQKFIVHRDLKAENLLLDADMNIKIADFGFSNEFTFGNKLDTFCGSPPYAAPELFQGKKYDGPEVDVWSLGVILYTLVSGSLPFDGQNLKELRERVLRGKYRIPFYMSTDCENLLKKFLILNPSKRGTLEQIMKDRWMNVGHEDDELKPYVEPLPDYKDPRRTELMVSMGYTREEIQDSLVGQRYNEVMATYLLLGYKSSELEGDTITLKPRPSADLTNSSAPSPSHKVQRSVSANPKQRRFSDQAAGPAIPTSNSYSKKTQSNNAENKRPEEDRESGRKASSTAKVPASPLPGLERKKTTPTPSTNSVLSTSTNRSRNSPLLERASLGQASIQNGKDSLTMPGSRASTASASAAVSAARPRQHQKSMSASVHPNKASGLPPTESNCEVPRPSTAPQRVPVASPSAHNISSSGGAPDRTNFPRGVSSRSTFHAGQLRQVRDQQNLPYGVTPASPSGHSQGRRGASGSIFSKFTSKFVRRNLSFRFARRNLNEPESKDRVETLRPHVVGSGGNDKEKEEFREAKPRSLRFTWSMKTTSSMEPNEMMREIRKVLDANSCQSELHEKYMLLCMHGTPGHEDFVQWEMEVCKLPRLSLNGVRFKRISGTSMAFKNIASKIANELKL", "experiment": "Inhibition of human full length MARK2 expressed in baculovirus assessed as substrate phosphorylation using fluorescence-labelled peptides as substrate at 0.2 uM after 90 mins by microfluidic peptide phosphorylation assay"}, "[6]": {"target": "Casein kinase I isoform alpha (Homo sapiens) (UniProt P48729)", "sequence (P48729 2-337 limits assumed)": "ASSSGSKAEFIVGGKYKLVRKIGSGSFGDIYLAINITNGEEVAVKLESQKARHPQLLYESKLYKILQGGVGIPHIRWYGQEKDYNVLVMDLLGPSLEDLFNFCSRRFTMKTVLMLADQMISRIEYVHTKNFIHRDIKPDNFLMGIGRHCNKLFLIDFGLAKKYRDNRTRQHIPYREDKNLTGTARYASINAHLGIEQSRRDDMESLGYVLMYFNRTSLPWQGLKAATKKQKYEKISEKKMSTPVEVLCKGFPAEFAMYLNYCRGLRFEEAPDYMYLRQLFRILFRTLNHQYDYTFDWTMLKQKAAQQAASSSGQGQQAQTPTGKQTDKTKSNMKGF", "experiment": "Inhibition of human full length CSNK1A1 expressed in baculovirus assessed as substrate phosphorylation using fluorescence-labelled peptides as substrate at 0.2 uM after 90 mins by microfluidic peptide phosphorylation assay"}, "[7]": {"target": "Mitogen-activated protein kinase 3 (Homo sapiens) (UniProt P27361)", "sequence (P27361 whole entry)": "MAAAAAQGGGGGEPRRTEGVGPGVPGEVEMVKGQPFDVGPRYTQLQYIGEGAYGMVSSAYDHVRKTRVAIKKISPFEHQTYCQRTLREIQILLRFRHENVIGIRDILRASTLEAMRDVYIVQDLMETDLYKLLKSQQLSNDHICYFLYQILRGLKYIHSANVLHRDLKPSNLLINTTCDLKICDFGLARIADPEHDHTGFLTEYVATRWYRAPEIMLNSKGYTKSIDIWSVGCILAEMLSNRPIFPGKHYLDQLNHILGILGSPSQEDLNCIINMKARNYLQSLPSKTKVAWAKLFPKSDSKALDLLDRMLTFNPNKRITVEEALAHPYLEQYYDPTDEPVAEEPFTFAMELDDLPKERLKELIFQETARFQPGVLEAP", "experiment": "Inhibition of human full length ERK1 expressed in Escherichia coli cell assessed as substrate phosphorylation using fluorescence-labelled peptides as substrate at 8 uM after 90 mins by microfluidic peptide phosphorylation assay"}, "[8]": {"target": "Fibroblast growth factor receptor 3 (Homo sapiens) (UniProt P22607)", "sequence (P22607 23-806 limits assumed)": "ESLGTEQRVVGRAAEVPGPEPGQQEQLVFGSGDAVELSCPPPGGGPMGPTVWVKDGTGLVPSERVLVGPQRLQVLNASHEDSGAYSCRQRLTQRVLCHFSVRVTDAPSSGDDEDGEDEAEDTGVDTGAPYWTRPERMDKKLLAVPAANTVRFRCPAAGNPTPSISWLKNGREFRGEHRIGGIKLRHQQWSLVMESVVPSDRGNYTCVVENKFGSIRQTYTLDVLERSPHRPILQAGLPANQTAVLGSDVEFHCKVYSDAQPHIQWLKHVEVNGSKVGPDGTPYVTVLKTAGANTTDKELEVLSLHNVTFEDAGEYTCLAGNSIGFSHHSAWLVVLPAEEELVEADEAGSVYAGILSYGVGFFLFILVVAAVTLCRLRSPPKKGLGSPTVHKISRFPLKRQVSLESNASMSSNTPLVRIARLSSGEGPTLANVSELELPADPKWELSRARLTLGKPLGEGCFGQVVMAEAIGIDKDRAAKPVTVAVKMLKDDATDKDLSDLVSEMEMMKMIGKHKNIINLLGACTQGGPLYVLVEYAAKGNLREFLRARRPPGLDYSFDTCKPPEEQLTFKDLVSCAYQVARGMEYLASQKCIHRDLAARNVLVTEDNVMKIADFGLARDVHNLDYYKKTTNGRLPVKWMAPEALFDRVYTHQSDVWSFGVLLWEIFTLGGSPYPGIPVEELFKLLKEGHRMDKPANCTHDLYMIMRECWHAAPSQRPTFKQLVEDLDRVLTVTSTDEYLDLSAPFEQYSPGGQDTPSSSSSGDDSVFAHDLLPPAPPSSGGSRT", "experiment": "Inhibition of human FGFR3 catalytic domain expressed in baculovirus assessed as substrate phosphorylation using fluorescence-labelled peptides as substrate at 1000 uM after 90 mins by microfluidic peptide phosphorylation assay"}, "[9]": {"target": "RAC-alpha serine/threonine-protein kinase (Homo sapiens) (UniProt P31749)", "sequence (P31749 whole entry)": "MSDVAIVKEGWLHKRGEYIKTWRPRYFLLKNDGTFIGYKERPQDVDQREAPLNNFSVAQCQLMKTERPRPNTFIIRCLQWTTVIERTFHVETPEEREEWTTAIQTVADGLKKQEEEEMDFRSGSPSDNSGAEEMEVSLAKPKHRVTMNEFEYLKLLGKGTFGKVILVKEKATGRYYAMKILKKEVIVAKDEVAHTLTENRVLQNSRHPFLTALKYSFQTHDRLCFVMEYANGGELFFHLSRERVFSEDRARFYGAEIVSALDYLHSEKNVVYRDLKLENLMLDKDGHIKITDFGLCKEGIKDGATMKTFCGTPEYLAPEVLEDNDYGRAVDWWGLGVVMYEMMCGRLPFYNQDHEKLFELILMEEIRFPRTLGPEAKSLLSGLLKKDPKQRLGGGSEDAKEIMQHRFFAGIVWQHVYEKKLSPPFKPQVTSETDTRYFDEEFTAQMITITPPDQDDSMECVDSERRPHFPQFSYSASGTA", "details": "0.1 uM", "description": "Inhibition of human AKT1 catalytic domain expressed in baculovirus assessed as substrate phosphorylation using fluorescence-labelled peptides as substrate at 0.1 uM after 90 mins by microfluidic peptide phosphorylation assay"}, "[10]": {"target": "Ribosomal protein S6 kinase alpha-1 (Homo sapiens) (UniProt Q15418)", "sequence (Q15418 whole entry)": "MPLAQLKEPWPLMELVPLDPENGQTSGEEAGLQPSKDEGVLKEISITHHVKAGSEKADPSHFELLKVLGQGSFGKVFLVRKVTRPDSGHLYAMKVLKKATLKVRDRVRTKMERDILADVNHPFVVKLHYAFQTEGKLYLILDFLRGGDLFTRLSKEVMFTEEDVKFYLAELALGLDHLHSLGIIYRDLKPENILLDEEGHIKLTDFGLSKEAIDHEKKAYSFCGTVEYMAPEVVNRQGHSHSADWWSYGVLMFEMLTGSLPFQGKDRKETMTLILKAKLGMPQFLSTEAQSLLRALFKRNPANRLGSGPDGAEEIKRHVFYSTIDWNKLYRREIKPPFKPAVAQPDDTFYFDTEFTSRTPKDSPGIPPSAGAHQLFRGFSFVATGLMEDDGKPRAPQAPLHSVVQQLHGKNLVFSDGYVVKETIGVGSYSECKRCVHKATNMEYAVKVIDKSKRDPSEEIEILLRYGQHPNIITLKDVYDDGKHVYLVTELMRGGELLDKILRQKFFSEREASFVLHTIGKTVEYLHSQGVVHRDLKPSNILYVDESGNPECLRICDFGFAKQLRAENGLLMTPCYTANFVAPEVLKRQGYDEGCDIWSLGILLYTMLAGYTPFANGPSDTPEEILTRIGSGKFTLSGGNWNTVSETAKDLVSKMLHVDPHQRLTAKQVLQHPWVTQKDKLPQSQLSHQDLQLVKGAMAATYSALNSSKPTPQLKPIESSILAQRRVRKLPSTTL", "experiment": "Inhibition of human full length RSK1 expressed in baculovirus assessed as substrate phosphorylation using fluorescence-labelled peptides as substrate at 0.1 uM after 90 mins by microfluidic peptide phosphorylation assay"}, "[11]": {"target": "T2, Serine/threonine-protein kinase D1 (Homo sapiens) (UniProt Q15139)", "T2 sequence (whole entry)": "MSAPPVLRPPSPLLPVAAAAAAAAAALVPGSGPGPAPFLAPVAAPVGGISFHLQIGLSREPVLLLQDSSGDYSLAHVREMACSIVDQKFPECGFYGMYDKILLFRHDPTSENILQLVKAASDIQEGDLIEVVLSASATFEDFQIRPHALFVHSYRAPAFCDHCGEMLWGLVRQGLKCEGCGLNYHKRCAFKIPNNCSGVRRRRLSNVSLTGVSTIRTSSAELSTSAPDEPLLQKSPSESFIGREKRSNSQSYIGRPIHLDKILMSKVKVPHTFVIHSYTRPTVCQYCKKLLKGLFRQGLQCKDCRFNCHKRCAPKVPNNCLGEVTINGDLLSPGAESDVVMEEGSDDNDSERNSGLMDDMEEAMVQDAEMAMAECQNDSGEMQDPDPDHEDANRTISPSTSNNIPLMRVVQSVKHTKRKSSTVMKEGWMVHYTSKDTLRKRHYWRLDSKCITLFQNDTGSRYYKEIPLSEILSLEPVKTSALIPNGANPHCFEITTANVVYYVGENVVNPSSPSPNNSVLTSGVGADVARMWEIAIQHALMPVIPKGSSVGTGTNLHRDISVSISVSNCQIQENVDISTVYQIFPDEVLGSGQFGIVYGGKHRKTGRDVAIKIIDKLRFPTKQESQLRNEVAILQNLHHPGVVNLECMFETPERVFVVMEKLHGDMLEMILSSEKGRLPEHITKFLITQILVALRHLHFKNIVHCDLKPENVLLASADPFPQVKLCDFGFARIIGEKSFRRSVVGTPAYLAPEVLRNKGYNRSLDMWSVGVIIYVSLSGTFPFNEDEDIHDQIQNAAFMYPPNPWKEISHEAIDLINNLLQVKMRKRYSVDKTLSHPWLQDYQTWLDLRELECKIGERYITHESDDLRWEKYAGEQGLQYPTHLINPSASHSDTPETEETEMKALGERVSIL", "experiment": "Inhibition of human full length PKD1 expressed in baculovirus assessed as substrate phosphorylation using fluorescence-labelled peptides as substrate at 0.1 uM after 90 mins by microfluidic peptide phosphorylation assay"}, "[12]": {"target": "T3, Testis-specific serine/threonine-protein kinase 1 (Homo sapiens) (UniProt Q9BXA7)", "T3 sequence (whole entry)": "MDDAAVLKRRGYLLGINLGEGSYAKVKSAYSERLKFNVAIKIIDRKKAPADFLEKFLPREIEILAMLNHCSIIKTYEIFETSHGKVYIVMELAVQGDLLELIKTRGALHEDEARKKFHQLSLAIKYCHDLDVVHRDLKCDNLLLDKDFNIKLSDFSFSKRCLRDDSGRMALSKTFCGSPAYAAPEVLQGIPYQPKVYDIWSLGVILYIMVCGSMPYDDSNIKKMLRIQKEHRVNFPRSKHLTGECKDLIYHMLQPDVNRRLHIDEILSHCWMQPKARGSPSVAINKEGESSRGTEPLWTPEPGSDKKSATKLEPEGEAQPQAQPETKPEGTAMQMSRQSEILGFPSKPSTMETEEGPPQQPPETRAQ", "experiment": "Inhibition of human full length TSSK1 expressed in baculovirus assessed as substrate phosphorylation using fluorescence-labelled peptides as substrate at 420 uM after 90 mins by microfluidic peptide phosphorylation assay"}, "[13]": {"target": "Aurora kinase B (Homo sapiens) (UniProt Q96GD4)", "sequence (Q96GD4 whole entry)": "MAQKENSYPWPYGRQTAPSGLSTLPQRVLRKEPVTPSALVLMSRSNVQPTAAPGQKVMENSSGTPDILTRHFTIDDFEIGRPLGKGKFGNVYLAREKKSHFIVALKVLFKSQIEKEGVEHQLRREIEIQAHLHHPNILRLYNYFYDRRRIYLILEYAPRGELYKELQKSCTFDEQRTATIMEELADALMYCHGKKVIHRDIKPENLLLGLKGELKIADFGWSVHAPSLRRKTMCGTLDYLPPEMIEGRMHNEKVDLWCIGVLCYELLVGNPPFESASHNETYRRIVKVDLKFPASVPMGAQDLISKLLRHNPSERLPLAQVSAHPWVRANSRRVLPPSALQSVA", "experiment": "Inhibition of human full length AurB expressed in baculovirus assessed as substrate phosphorylation using fluorescence-labelled peptides as substrate at 70 uM after 90 mins by microfluidic peptide phosphorylation assay"}},
  "data": [
    {"smiles": "NCCc1ccc(-c2ncnc3[nH]cnc23)cc1", "values": [
      {"measurement": "inhibition", "setting": "[1]", "result": 64.5, "unit": "%"},
      {"measurement": "inhibition", "setting": "[2]", "result": 0, "unit": "%"},
      {"measurement": "inhibition", "setting": "[3]", "result": 57.5, "unit": "%"}
    ]},
    {"smiles": "Clc1ccc(C2(c3ccc(-c4ncnc5[nH]cnc45)cc3)CCNCC2)cc1", "values": [
      {"measurement": "inhibition", "setting": "[4]", "result": 90, "unit": "%"},
      {"measurement": "inhibition", "setting": "[5]", "result": 41.5, "unit": "%"},
      {"measurement": "inhibition", "setting": "[6]", "result": 4, "unit": "%"}
    ]},
    {"smiles": "NCC1CCN(c2ncnc3[nH]ccc23)CC1", "values": [
      {"measurement": "inhibition", "setting": "[7]", "result": 8.5, "unit": "%"}
    ]},
    {"smiles": "c1cnc2[nH]ccc2c1", "values": [
      {"measurement": "inhibition", "setting": "[8]", "result": 63.5, "unit": "%"}
    ]},
    {"smiles": "C[C@H](CN(C)C)Oc1nc(Nc2cc3cccc(Cl)c3cn2)cnc1C#N", "values": [
      {"measurement": "inhibition", "setting": "[9]", "result": 0, "unit": "%"},
      {"measurement": "inhibition", "setting": "[10]", "result": 48.5, "unit": "%"},
      {"measurement": "inhibition", "setting": "[11]", "result": 5, "unit": "%"}
    ]},
    {"smiles": "c1nc(N2CCOCC2)c2nc[nH]c2n1", "values": [
      {"measurement": "inhibition", "setting": "[12]", "result": 71, "unit": "%"}
    ]},
    {"smiles": "CNCc1ccc(-c2ncnc3[nH]cnc23)cc1", "values": [
      {"measurement": "inhibition", "setting": "[13]", "result": 85, "unit": "%"}
    ]}
  ]
}
